One may read the pIC50 as the negative decadic logarithm of the IC50, by convention in mol/L.

SMILES strings stand for the structures. pIC50: −log10 of the molar value.

The first test has as its target T1, G1 APOL1 (Homo sapiens, UniProt O14791, I384M/S342G).
T1 construct: expressed in transfected cells
T1 sequence (O14791 28-398 S342G/I384M): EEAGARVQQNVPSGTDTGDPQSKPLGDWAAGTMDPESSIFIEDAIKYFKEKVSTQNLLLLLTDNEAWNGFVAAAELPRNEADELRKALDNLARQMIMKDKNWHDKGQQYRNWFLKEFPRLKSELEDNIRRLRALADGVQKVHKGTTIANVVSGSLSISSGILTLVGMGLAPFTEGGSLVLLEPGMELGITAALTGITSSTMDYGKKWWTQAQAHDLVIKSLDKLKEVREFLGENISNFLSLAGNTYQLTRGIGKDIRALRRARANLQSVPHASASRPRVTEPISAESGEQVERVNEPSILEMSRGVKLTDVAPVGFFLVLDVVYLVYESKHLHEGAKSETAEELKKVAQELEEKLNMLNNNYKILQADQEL
The test can be described thus: Acute APOL1 Thallium Assay with inducible stable clones of HEK 293 cells. It is filed as cell-based. The conditions noted are these: HEK 293 T-Rex cells expressing G1 APOL1; read-out: Thallium Assay (IC50). Put shortly: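 Readout: Tl+-triggered fluorescence, FLIPR, reflecting potassium flux through APOL1 pores after cells take up an AM-ester thallium indicator. Cells: HEK T-Rex stable clone G1 DC3.25, APOL1 G1 induced by tetracycline, seeded 26000 per well.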
Consider `CN(CCO)C(=O)[C@H]1C[C@H](c2c(-c3ccc(F)cc3)[nH]c3c(F)cc(F)cc32)C1` [Compound 79], for which the pIC50 was more than 6.60.
Still for that read-out and setting: then `O=C(NCC1(O)CCCCC1)[C@H]1C[C@H](c2c(-c3ccc(F)cc3)[nH]c3c(F)cc(F)cc32)C1` [Compound 80], with less than 6.00; and `C[C@H](O)CNC(=O)[C@H]1C[C@H](c2c(-c3ccc(F)cc3)[nH]c3c(F)cc(F)cc32)C1` [Compound 82], with 6.00 to 6.60.
For the compound `O=C(NCC1(CO)COC1)[C@H]1C[C@H](c2c(-c3ccc(F)cc3)[nH]c3c(F)cc(F)cc32)C1` [Compound 83], the pIC50 is less than 6.00.
Consider `O=C(OC1CN(C(=O)[C@H]2C[C@H](c3c(-c4ccc(F)cc4)[nH]c4c(F)cc(F)cc43)C2)C1)C1CCOCC1` [Compound 85], for which the negative logarithm of the IC50 (pIC50) is 6.00 to 6.60.
The same measure, in the same setting: with `CC(C)(O)C1CN(C(=O)[C@H]2C[C@H](c3c(-c4ccc(F)cc4)[nH]c4c(F)cc(F)cc43)C2)C1` [Compound 86] the figure was less than 6.00; with `O=C([C@H]1C[C@H](c2c(-c3ccc(F)cc3)[nH]c3c(F)cc(F)cc32)C1)N1CCC(O)(CO)CC1` [Compound 87], less than 6.00.
Consider `NC(=O)[C@@H]1CCCN1C(=O)[C@H]1C[C@H](c2c(-c3ccc(F)cc3)[nH]c3c(F)cc(F)cc32)C1` [Compound 88], for which the pIC50 is less than 6.00.
In the case of `CC(O)CN(C)C(=O)[C@H]1C[C@H](c2c(-c3ccc(F)cc3)[nH]c3c(F)cc(F)cc32)C1` (some centres unmarked) [Compound 90], the negative logarithm of the IC50 (pIC50) was less than 6.00.
Same read-out and setting: then `CC(=O)NC1CCCN(C(=O)[C@H]2C[C@H](c3c(-c4ccc(F)cc4)[nH]c4c(F)cc(F)cc43)C2)C1` (some centres unmarked) [Compound 91], with less than 6.00; and `NC(=O)C1CCCCN1C(=O)[C@H]1C[C@H](c2c(-c3ccc(F)cc3)[nH]c3c(F)cc(F)cc32)C1` (some centres unmarked) [Compound 92], with less than 6.00.
Consider `CN(CC(C)(C)O)C(=O)[C@H]1C[C@H](c2c(-c3ccc(F)cc3)[nH]c3c(F)cc(F)cc32)C1` [Compound 93], for which the pIC50 is less than 6.00.
Still for that read-out and setting: with `O=C([C@H]1C[C@H](c2c(-c3ccc(F)cc3)[nH]c3c(F)cc(F)cc32)C1)N1CCCCC1CCO` (some centres unmarked) [Compound 94] the figure was less than 6.00.

Staying with this test, now noted: Table 24, Compounds 287 to 465; read-out: Thallium Assay (IC50).
Turning to `NC(=O)CNCC1CC(c2c(-c3ccc(F)cc3)[nH]c3c(F)cc(F)cc23)C1` (centres unmarked) [Compound 433, 2-(((3-(5,7-difluoro-2-(4-fluorophenyl)-1H-indol-3-yl)cyclobutyl)methyl)amino)acetamide], the pIC50 is more than 6.60.
As for `NC(=O)CNC[C@H]1C[C@@H](c2c(-c3ccc(F)cc3)[nH]c3c(F)cc(F)cc32)C1` [Compound 447], the negative logarithm of the IC50 (pIC50) is more than 6.60.
Same read-out and setting: with `NC(=O)CC1CC(c2c(-c3ccc(F)cc3)[nH]c3c(F)cc(F)cc23)C1` (centres unmarked) [Compound 455] the figure was more than 6.60.

Staying with this test, now noted: Thallium Assay (IC50), HEK 293 T-Rex cells expressing G1 APOL1.
For the compound `O=C([C@H]1C[C@H](c2c(-c3ccc(F)cc3)[nH]c3c(F)cc(F)cc32)C1)N1CCC(O)(O)CC1` [Compound 127], the pIC50 is less than 6.00.

For the origin of these results see patent publication US12116343B2, “Inhibitors of APOL1 and methods of using same” (Vertex Pharmaceuticals Incorporated, priority 2020, dated 2024).
